Experimental data published in the supplement of paper PMC11208160.

Assay: recombinant UMI read abundance after kanamycin selection (control-corrected) (log10(CPM+1)); higher = more efficient recombination; extreme values may be limits of the assay; sequences stand for … in AGTGCAGAGAAAATCGGCCAGTTTTCTCTGCCTGCAGTCCGCATGCCGTGGGACCCCTTGGGTTCTAACCTGTTGCCTAGATTTATGCAGCGGACTGCCTTTCTCCCAAAGTGATAAACCGG…AGGTTGGTTTCACT; site = the 11-nt donor
Procedure, shortened: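 Pooled Escherichia coli screen of donor and donor-binding-loop pairs for the IS621 bridge recombinase. Each pair sits with a 12-nt UMI on a plasmid carrying a promoterless kanamycin gene. The library was co-electroporated with a target plasmid encoding a fixed target and T7-inducible recombinase, then plated with IPTG (0.07 mM) plus kanamycin, or unselected, each in two replicates. Recombinant UMIs were PCR-amplified across the donor–target junction and sequenced. Counts became CPM, averaged over replicates, scaled by control-derived factors and reported as log10(CPM+1).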
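Also: IS621 bridge recombinase in Escherichia coli cells against a fixed T5 target plasmid.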

Sequence | recombinant UMI read abundance (log10)
CCAGTATCATGGACCGGTTTTCCCGGTAATCCGTATTTGCA (site CCAGTATCTTG) | 2.21
CCAGTATCATGGACCGGTTTTCCCGGTAATCCGTATTTGCA (site GCAGTATCTTG) | 0
CCAGTATCATGGACCGGTTTTCCCGGTAATCCGTATTTGCA (site TCAGTATCTTG) | 0
CCAGTGACATGGACCGGTTTTCCCGGTAATCCGTATTTGGT (site CCAGTGACTAC) | 0
CCATATGCATGGACCGGTTTTCCCGGTAATCCGTATTTGGC (site CCATATGCTGC) | 0.0195
CCATCGCCATGGACCGGTTTTCCCGGTAATCCGTATTTGGA (site CCATCGCCTTC) | 0.0195
CCATGGTCATGGACCGGTTTTCCCGGTAATCCGTATTTGTT (site CCATGGTCTAA) | 1.06
CCATTATCATGGACCGGTTTTCCCGGTAATCCGTATTTGCA (site ACAGTATCTTG) | 0
CCATTATCATGGACCGGTTTTCCCGGTAATCCGTATTTGCA (site CCATTATCTTG) | 0.785
CCATTCCCATGGACCGGTTTTCCCGGTAATCCGTATTTGCT (site CAATTCCCTAG) | 0
CCATTCCCATGGACCGGTTTTCCCGGTAATCCGTATTTGCT (site CCATTCCCTAG) | 0
CCATTCCCATGGACCGGTTTTCCCGGTAATCCGTATTTGCT (site CGATTCCCTAG) | 0
CCATTCCCATGGACCGGTTTTCCCGGTAATCCGTATTTGCT (site CTATTCCCTAG) | 0
CCATTCTCATGGACCGGTTTTCCCGGTAATCCGTATTTGTA (site CCATTCTCTTA) | 0.451
CCCAACACATGGACCGGTTTTCCCGGTAATCCGTATTTGTA (site CCCAACACTTA) | 1.35
CCCAACACATGGACCGGTTTTCCCGGTAATCCGTATTTGTA (site CCCCACACTTA) | 0.0125
CCCAACACATGGACCGGTTTTCCCGGTAATCCGTATTTGTA (site CCCGACACTTA) | 0.0265
CCCAACACATGGACCGGTTTTCCCGGTAATCCGTATTTGTA (site CCCTACACTTA) | 0.00893
CCCAACCCATGGACCGGTTTTCCCGGTAATCCGTATTTGAT (site CCCAACCCTAT) | 0.00723
CCCAAGTCATGGACCGGTTTTCCCGGTAATCCGTATTTGGG (site CCCAAGTCTCC) | 2.38
CCCAATTCATGGACCGGTTTTCCCGGTAATCCGTATTTGCC (site ACCAATTCTGG) | 0
CCCAATTCATGGACCGGTTTTCCCGGTAATCCGTATTTGCC (site CCCAATTCTGG) | 0.628
CCCAATTCATGGACCGGTTTTCCCGGTAATCCGTATTTGCC (site GCCAATTCTGG) | 0
CCCAATTCATGGACCGGTTTTCCCGGTAATCCGTATTTGCC (site TCCAATTCTGG) | 0
CCCACCGCATGGACCGGTTTTCCCGGTAATCCGTATTTGCG (site ACCACCGCTCG) | 0.0127

Sequence | recombinant UMI read abundance (log10)
CCCACCGCATGGACCGGTTTTCCCGGTAATCCGTATTTGCG (site CCCACCGCTCG) | 0.00466
CCCACCGCATGGACCGGTTTTCCCGGTAATCCGTATTTGCG (site GCCACCGCTCG) | 0.0563
CCCACCGCATGGACCGGTTTTCCCGGTAATCCGTATTTGCG (site TCCACCGCTCG) | 0.00493
CCCACGCCATGGACCGGTTTTCCCGGTAATCCGTATTTGTA (site ACCACGCCTTA) | 0.00406
CCCACGCCATGGACCGGTTTTCCCGGTAATCCGTATTTGTA (site CCCACGCCTTA) | 0.00594
CCCACGCCATGGACCGGTTTTCCCGGTAATCCGTATTTGTA (site GCCACGCCTTA) | 0.00718
CCCACGCCATGGACCGGTTTTCCCGGTAATCCGTATTTGTA (site TCCACGCCTTA) | 0.0141
CCCAGATCATGGACCGGTTTTCCCGGTAATCCGTATTTGTC (site CCCAAATCTGA) | 0
CCCAGATCATGGACCGGTTTTCCCGGTAATCCGTATTTGTC (site CCCACATCTGA) | 0
CCCAGATCATGGACCGGTTTTCCCGGTAATCCGTATTTGTC (site CCCAGATCTGA) | 0
CCCAGATCATGGACCGGTTTTCCCGGTAATCCGTATTTGTC (site CCCATATCTGA) | 0
CCCATAACATGGACCGGTTTTCCCGGTAATCCGTATTTGTC (site CCCATAACTGA) | 0
CCCATAACATGGACCGGTTTTCCCGGTAATCCGTATTTGTC (site CCCATACCTGA) | 0
CCCATAACATGGACCGGTTTTCCCGGTAATCCGTATTTGTC (site CCCATAGCTGA) | 0
CCCATAACATGGACCGGTTTTCCCGGTAATCCGTATTTGTC (site CCCATATCTGA) | 0
CCCATACCATGGACCGGTTTTCCCGGTAATCCGTATTTGTC (site CCCATAACTGA) | 0
CCCATACCATGGACCGGTTTTCCCGGTAATCCGTATTTGTC (site CCCATACCTGA) | 0
CCCATACCATGGACCGGTTTTCCCGGTAATCCGTATTTGTC (site CCCATAGCTGA) | 0
CCCATACCATGGACCGGTTTTCCCGGTAATCCGTATTTGTC (site CCCATATCTGA) | 0
CCCATATCATGGACCGGTTTTCCCGGTAATCCGTATTTGAC (site CCCATATCTGA) | 0
CCCATATCATGGACCGGTTTTCCCGGTAATCCGTATTTGAC (site CCCATATCTGC) | 0
CCCATATCATGGACCGGTTTTCCCGGTAATCCGTATTTGAC (site CCCATATCTGG) | 0
CCCATATCATGGACCGGTTTTCCCGGTAATCCGTATTTGAC (site CCCATATCTGT) | 0.446
CCCATCTCATGGACCGGTTTTCCCGGTAATCCGTATTTGTA (site CCCATCTCTTA) | 1.97
CCCCACACATGGACCGGTTTTCCCGGTAATCCGTATTTGTC (site CCCCACACTAA) | 0.316

Sequence | recombinant UMI read abundance (log10)
CCCCACACATGGACCGGTTTTCCCGGTAATCCGTATTTGTC (site CCCCACACTCA) | 0.235
CCCCACACATGGACCGGTTTTCCCGGTAATCCGTATTTGTC (site CCCCACACTGA) | 2.39
CCCCACACATGGACCGGTTTTCCCGGTAATCCGTATTTGTC (site CCCCACACTTA) | 0.335
CCCCACACATGGACCGGTTTTCCCGGTAATCCGTATTTGTT (site CCCCACACTAA) | 0.634
CCCCACACATGGACCGGTTTTCCCGGTAATCCGTATTTGTT (site CCCCACACTCA) | 0.35
CCCCACACATGGACCGGTTTTCCCGGTAATCCGTATTTGTT (site CCCCACACTGA) | 0.246
CCCCACACATGGACCGGTTTTCCCGGTAATCCGTATTTGTT (site CCCCACACTTA) | 0.396
CCCCGAGCATGGACCGGTTTTCCCGGTAATCCGTATTTGCA (site CCCCGAGCTTG) | 0.798
CCCCGCACATGGACCGGTTTTCCCGGTAATCCGTATTTGGA (site CCCCGCACTTC) | 0.0136
CCCCTATCATGGACCGGTTTTCCCGGTAATCCGTATTTGTC (site CCCATATCTGA) | 0
CCCCTATCATGGACCGGTTTTCCCGGTAATCCGTATTTGTC (site CCCCTATCTGA) | 1.82
CCCCTATCATGGACCGGTTTTCCCGGTAATCCGTATTTGTC (site CCCGTATCTGA) | 0
CCCCTATCATGGACCGGTTTTCCCGGTAATCCGTATTTGTC (site CCCTTATCTGA) | 0
CCCGACTCATGGACCGGTTTTCCCGGTAATCCGTATTTGAA (site CCCGACTCTTT) | 1.35
CCCGATCCATGGACCGGTTTTCCCGGTAATCCGTATTTGCA (site CCCGATCCTTG) | 0
CCCGATCCATGGACCGGTTTTCCCGGTAATCCGTATTTGCA (site CCCGCTCCTTG) | 0
CCCGATCCATGGACCGGTTTTCCCGGTAATCCGTATTTGCA (site CCCGGTCCTTG) | 0
CCCGATCCATGGACCGGTTTTCCCGGTAATCCGTATTTGCA (site CCCGTTCCTTG) | 0
CCCGCTCCATGGACCGGTTTTCCCGGTAATCCGTATTTGCA (site CCCGATCCTTG) | 0
CCCGCTCCATGGACCGGTTTTCCCGGTAATCCGTATTTGCA (site CCCGCTCCTTG) | 0
CCCGCTCCATGGACCGGTTTTCCCGGTAATCCGTATTTGCA (site CCCGGTCCTTG) | 0
CCCGCTCCATGGACCGGTTTTCCCGGTAATCCGTATTTGCA (site CCCGTTCCTTG) | 0
CCCGGACCATGGACCGGTTTTCCCGGTAATCCGTATTTGCA (site CCCGGACCTTG) | 0
CCCGGACCATGGACCGGTTTTCCCGGTAATCCGTATTTGCA (site CCCGGCCCTTG) | 0
CCCGGACCATGGACCGGTTTTCCCGGTAATCCGTATTTGCA (site CCCGGGCCTTG) | 0
